Data reported in patent US8835472B2, “Compounds, pharmaceutical compositions and uses thereof” (Boehringer Ingelheim International GmbH, priority 2010, dated 2014).

Molecular target: human ACC2 (Homo sapiens (Human), UniProt O00763)
Experiment: ACC2 assay, spectrophotometric 384 well assay (NADH-linked, coupled lactate dehydrogenase/pyruvate kinase reaction)
Format: biochemical
Conditions: hACC2 construct lacking the 128 N-terminal amino acids; 25° C., 340 nm over 15 minutes
Method in brief: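 N-terminally truncated human ACC2 (lacking 128 residues) expressed in insect cells; coupled PK/LDH read-out of ADP as NADH loss at 340 nm, 15 min, 25 °C. Tris pH 7.5 with citrate and KHCO3; 200 μM acetyl-CoA, 500 μM ATP, 1% DMSO.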

human ACC2, sequence (O00763 129-2458): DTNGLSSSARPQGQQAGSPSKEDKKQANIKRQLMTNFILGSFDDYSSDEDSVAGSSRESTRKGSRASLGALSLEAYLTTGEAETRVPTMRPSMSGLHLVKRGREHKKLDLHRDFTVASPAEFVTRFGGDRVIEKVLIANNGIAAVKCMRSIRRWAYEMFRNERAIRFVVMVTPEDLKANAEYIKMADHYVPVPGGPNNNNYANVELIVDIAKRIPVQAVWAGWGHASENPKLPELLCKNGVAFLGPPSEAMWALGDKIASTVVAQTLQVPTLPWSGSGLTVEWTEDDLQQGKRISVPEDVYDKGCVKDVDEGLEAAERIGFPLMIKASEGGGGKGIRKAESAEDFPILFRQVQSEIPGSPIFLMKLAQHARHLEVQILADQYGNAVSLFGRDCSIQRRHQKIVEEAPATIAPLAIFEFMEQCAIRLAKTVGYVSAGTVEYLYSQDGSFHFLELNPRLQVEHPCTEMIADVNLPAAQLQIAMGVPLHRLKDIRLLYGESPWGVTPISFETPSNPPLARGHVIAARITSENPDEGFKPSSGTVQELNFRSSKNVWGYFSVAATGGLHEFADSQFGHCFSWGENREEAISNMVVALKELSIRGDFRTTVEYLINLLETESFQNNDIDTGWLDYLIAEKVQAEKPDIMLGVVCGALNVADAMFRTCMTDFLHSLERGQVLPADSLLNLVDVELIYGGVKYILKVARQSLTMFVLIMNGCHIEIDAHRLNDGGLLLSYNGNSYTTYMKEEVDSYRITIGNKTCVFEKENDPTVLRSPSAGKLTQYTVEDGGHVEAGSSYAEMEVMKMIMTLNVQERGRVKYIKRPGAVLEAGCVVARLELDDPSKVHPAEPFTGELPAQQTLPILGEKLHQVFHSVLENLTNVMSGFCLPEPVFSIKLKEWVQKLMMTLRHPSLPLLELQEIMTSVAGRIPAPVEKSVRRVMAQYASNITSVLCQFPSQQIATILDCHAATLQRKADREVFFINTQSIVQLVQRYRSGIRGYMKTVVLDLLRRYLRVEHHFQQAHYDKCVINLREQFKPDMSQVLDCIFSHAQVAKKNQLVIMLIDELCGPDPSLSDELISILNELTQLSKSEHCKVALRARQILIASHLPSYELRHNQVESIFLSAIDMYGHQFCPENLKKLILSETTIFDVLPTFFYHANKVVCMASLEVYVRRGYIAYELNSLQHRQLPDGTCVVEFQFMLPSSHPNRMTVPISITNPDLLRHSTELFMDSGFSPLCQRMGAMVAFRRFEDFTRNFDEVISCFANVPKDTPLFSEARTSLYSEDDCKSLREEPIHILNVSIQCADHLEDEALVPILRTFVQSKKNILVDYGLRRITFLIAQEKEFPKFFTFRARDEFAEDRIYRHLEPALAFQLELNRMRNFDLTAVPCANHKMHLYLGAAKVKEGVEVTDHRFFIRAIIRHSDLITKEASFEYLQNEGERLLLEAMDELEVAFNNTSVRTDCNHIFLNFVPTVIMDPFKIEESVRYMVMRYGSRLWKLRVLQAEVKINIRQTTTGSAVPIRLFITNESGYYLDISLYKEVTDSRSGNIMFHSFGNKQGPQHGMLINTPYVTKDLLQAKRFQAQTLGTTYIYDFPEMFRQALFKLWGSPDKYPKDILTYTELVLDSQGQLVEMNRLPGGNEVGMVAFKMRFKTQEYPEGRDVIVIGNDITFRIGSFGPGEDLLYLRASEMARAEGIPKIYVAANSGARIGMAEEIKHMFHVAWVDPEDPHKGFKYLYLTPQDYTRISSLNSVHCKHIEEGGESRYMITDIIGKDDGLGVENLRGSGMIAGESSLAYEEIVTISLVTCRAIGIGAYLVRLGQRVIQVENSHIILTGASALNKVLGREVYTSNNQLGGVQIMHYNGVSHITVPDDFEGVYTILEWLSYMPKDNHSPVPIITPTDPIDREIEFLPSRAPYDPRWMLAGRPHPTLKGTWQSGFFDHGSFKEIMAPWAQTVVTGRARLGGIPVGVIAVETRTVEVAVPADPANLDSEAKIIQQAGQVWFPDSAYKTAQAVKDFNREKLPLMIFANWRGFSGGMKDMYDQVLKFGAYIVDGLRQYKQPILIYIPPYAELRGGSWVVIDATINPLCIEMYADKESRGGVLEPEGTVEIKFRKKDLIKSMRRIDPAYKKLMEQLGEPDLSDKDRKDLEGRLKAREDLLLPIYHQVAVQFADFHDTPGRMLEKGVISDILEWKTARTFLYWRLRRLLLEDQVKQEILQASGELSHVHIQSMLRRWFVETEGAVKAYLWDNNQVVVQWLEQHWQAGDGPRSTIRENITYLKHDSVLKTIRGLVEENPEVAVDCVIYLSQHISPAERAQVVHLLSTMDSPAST

Structure (SMILES) | IC50
CC(=O)NC(C)c1ccc(C#Cc2ccc(OCC(C)C)cc2)cc1 (centres unmarked) [Example 2.48] | 260 nM
CC(=O)NC(C)Cc1ccc(C#Cc2ccnc(N(C)Cc3ccncc3)n2)cc1 (centres unmarked) [Example 11.2] | 30000 nM
CCOc1ccc(C#Cc2ccc(CC(C)N(C)C(=O)CC)cc2)cc1 (centres unmarked) [Example 18.2] | 4400 nM
CC(=O)NC(C)c1ccc(C#Cc2ccc(OC(C)C)nc2)cc1 (centres unmarked) [Example 2.50] | 900 nM
CC(=O)NC(C)Cc1ccc(C#Cc2cnc(N3CCCC3)nc2)cc1 (centres unmarked) [Example 13.77] | 220 nM
CC(=O)NC(C)Cc1ccc(C#Cc2ccc3c(c2)OCC(C)(C)CO3)cc1 (centres unmarked) [Example 14.55] | 120 nM
CCOc1ccc(C#Cc2ccc(CC(C)NC(=O)c3cncnc3)cc2)cc1 (centres unmarked) [Example 4.14] | 1200 nM
CC(=O)NC(C)Cc1ccc(C#Cc2ccc(OCc3cc(C)on3)cc2)cc1 (centres unmarked) [Example 9.27] | 640 nM
CCOc1ccc(C#Cc2ccc(CC(C)NC(=O)C3CCC(=O)NC3)cc2)cc1 (centres unmarked) [Example 4.64] | 5100 nM
COCCOc1ccc(C#Cc2ccc(CC(C)NC(C)=O)cc2)nn1 (centres unmarked) [Example 2.89] | 16400 nM
CC(=O)NC(C)Cc1ccc(C#Cc2cnc(OC(CF)CF)nc2)cc1 (centres unmarked) [Example 12.44] | 1000 nM
CCCc1ccc(C#Cc2ccc(CC(C)NC(C)=O)cc2)cc1 (centres unmarked) [Example 2.20] | 300 nM
COc1cc(C#Cc2ccc(CC(C)NC(C)=O)cc2)ccn1 (centres unmarked) [Example 2.94] | 260 nM
C[C@H](NC(=O)C1CC1)c1ccc(C#Cc2cnc(OC3CCC3)nc2)cc1 [Example 12.65] | 450 nM
CC(=O)NC(C)Cc1ccc(C#Cc2ccc(C(=O)NC(C)C)cc2)cc1 (centres unmarked) [Example 8.20] | 4400 nM
CC(=O)NC(C)Cc1ccc(C#Cc2cnc(NCCC(F)(F)F)nc2)cc1 (centres unmarked) [Example 13.75] | 170 nM
CC(=O)NCC(C)(C)c1ccc(C#Cc2cnc(OC3CCC3)nc2)cc1 [Example 2.34] | 180 nM
CCOc1ccc(C#Cc2ccc(CC(C)NC(=O)c3cn[nH]c3)cc2)cc1 (centres unmarked) [Example 4.69] | 70 nM
CC(=O)NC(C)Cc1ccc(C#Cc2cnc(NCc3cccc(C)c3)nc2)cc1 (centres unmarked) [Example 13.56] | 970 nM
CSc1nccc(C#Cc2ccc(CC(C)NC(C)=O)cc2)n1 (centres unmarked) [Example 14.1, N-{1-Methyl-2-[4-(2-methylsulfanyl-pyrimidin-4-ylethynyl)-phenyl]-ethyl}acetamide] | 1200 nM
CC(=O)NC(C)Cc1ccc(C#Cc2ccc(C(=O)N3CCC(C)(C)CC3)cc2)cc1 (centres unmarked) [Example 8.16] | 1900 nM

Structure (SMILES) | IC50
CC(=O)NC(C)Cc1ccc(C#Cc2ccc(Oc3ccccc3)nn2)cc1 (centres unmarked) [Example 2.77] | 1500 nM
C[C@H](NC(=O)C1CC1)c1ccc(C#Cc2cnc(OCCC(F)(F)F)nc2)cc1 [Example 12.63] | 1100 nM
CCOc1ccc(C#Cc2ccc(CC(C)NC(=O)OC)cc2)cc1 (centres unmarked) [Example 29.2] | 310 nM
CC(=O)NCCc1ccc(C#Cc2ccc(OC(C)C)cc2)cc1 [Example 14.35] | 730 nM
COc1ncc(C#Cc2ccc(CC(C)NC(=O)C3CC3)cc2)c(OC)n1 (centres unmarked) [Example 2.58] | 3700 nM
CC(Cc1ccc(C#Cc2cnc(NC3CCC3)nc2)cc1)NC(=O)N(C)C (centres unmarked) [Example 13.27] | 120 nM
CC(=O)NC(C)Cc1ccc(C#Cc2cccc(C(=O)NCC3CCCO3)c2)cc1 (centres unmarked) [Example 8.29] | 4500 nM
CC(=O)NC(C)Cc1ccc(C#Cc2cnc(OCc3cccc(F)c3)nc2)cc1 (centres unmarked) [Example 12.54] | 230 nM
CC(=O)NC(C)Cc1ccc(C#Cc2cnc(N3CCC(C)(C)CC3)nc2)cc1 (centres unmarked) [Example 13.57] | 220 nM
CC(Cc1ccc(C#Cc2ccc(OC(C)C)cc2)cc1)NC(=O)C1CC1 (centres unmarked) [Example 14.41] | 440 nM
CC(=O)N[C@@H](C)c1ccc(C#Cc2cnc(NCc3ccccc3)nc2)cc1 [Example 13.92] | 7300 nM
COC(=O)NC(C)Cc1ccc(C#Cc2cnc(NC3CCCC3)nc2)cc1 (centres unmarked) [Example 13.35] | 290 nM
CC(=O)NC(C)Cc1ccc(C#Cc2ccc3c(c2)OCCO3)cc1 (centres unmarked) [Example 3.14] | 220 nM
CC(=O)NC(C)Cc1ccc(C#Cc2ccnc(OCC(C)C)n2)cc1 (centres unmarked) [Example 12.4] | 980 nM
CC(=O)NC(C)Cc1ccc(C#Cc2ccnc(N3CCC(C)(C)C3)n2)cc1 (centres unmarked) [Example 11.24] | 390 nM
C[C@H](NC(=O)C1CC1)c1ccc(C#Cc2cnc(NC3CC3)nc2)cc1 [Example 13.91] | 2900 nM
CC(=O)NC(C)Cc1ccc(C#Cc2ccnc(N3CCCC(C(F)(F)F)C3)n2)cc1 (centres unmarked) [Example 11.36] | 690 nM
CC(=O)NC(C)Cc1ccc(C#Cc2cnc(NCC3CCCC3)nc2)cc1 (centres unmarked) [Example 13.76] | 600 nM
CC(=O)NC(C)Cc1ccc(C#Cc2cnc(NC(C)C3CC3)nc2)cc1 (centres unmarked) [Example 13.66] | 150 nM
CC(=O)NC(C)Cc1ccc(C#Cc2cnc(Oc3ccc4cn[nH]c4c3)nc2)cc1 (centres unmarked) [Example 12.39] | 3200 nM
CCOc1cc(C#Cc2ccc(C[C@H](C)NC(C)=O)cc2)ccn1 (stereo in doubt) [Example 23.1, N-{2-[4-(2-Ethoxy-pyridin-4-ylethynyl)-phenyl]-1-methyl-ethyl}-acetamide] | 230 nM

Structure (SMILES) | IC50
CC(=O)NC(C)Cc1ccc(C#Cc2ccc(OC(C)c3ccncc3)cc2)cc1 (centres unmarked) [Example 9.25] | 2500 nM
CCOc1ccc(C#Cc2ccc(CC(C)NC(=O)c3cocn3)cc2)cc1 (centres unmarked) [Example 4.56] | 5600 nM
CCCOc1ccc(C#Cc2ccc(C(C)CNC(C)=O)cc2)cc1 (centres unmarked) [Example 32.1, N-{2-[4-(4-Propoxy-phenylethynyl)-phenyl]-propyl}-acetamide] | 70 nM
COC(=O)NCC(C)c1ccc(C#Cc2cnc(OC3CCC3)nc2)cc1 (centres unmarked) [Example 33.4] | 520 nM
CCOc1ccc(C#Cc2ccc(CCNC(C)=O)cc2)cn1 [Example 14.36] | 2300 nM
CC(=O)NC(C)Cc1ccc(C#Cc2ccc3c(c2)CCO3)cc1 (centres unmarked) [Example 2.8] | 730 nM
CC(=O)NC(C)Cc1ccc(C#Cc2ccnc(Oc3ccccc3)n2)cc1 (centres unmarked) [Example 12.3] | 1300 nM
CCNc1ncc(C#Cc2ccc(CC(C)NC(=O)C3CC3)cc2)cn1 (centres unmarked) [Example 13.52] | 5200 nM
CC(Cc1ccc(C#Cc2ccc3c(c2)CCO3)cc1)NC(=O)C1CC1 (centres unmarked) [Example 2.62] | 740 nM
CCCOc1ccc(C#Cc2ccc(C(C)(C)NC(C)=O)cc2)c(OC)c1 [Example 2.40] | 11800 nM
COc1ccc(C#Cc2ccc(CC(C)NC(C)=O)cc2)cn1 (centres unmarked) [Example 2.22] | 720 nM
CC(=O)NC(C)c1ccc(C#Cc2ccc(OC3CCC3)cc2)cc1 (centres unmarked) [Example 2.53] | 120 nM
CC(=O)NC(C)Cc1ccc(C#Cc2ccc(-c3ccc(C)cc3)cn2)cc1 (centres unmarked) [Example 1.17] | 390 nM
COC(=O)NC(C)Cc1ccc(C#Cc2cnc(NC(C)C)nc2)cc1 (centres unmarked) [Example 13.38] | 690 nM
CC(=O)NC(C)Cc1ccc(C#Cc2ccc(OCc3cncs3)cc2)cc1 (centres unmarked) [Example 9.28] | 690 nM
CCCN(C)C(=O)c1ccc(C#Cc2ccc(CC(C)NC(C)=O)cc2)cc1 (centres unmarked) [Example 8.10] | 1100 nM
CC(=O)NC(C)Cc1ccc(C#Cc2ccc(-c3ccccc3)cc2)cc1 (centres unmarked) [21.1] | 130 nM
COC(=O)NC(C)Cc1ccc(C#Cc2cnc(N3CC4CCCC4C3)nc2)cc1 (centres unmarked) [Example 13.30] | 360 nM
CC(=O)NC(C)Cc1ccc(C#Cc2cnc(OCC3CC3(F)F)nc2)cc1 (centres unmarked) [Example 12.45] | 180 nM
CCNC(=O)c1ccc(C#Cc2ccc(CC(C)NC(C)=O)cc2)cc1 (centres unmarked) [Example 8.17] | 4400 nM
CCOc1ccc(C#Cc2ccc(CC(C)NC(=O)C(F)F)cc2)cc1 (centres unmarked) [Example 4.26] | 230 nM

Structure (SMILES) | IC50
CC(=O)NC(C)Cc1ccc(C#Cc2ccnc(N3CCC(CO)C3)n2)cc1 (centres unmarked) [Example 11.10] | 16700 nM
CC(=O)NC(C)Cc1ccc(C#Cc2ccc(OCc3c[nH]cn3)cc2)cc1 (centres unmarked) [Example 9.38] | 2600 nM
CC(=O)NC(C)Cc1ccc(C#Cc2ccc(OCC3CCCCO3)cc2)cc1 (centres unmarked) [Example 9.17] | 610 nM
CC(Cc1ccc(C#Cc2ccc(OC3CCC3)cc2)cc1)NC(=O)C1CC1 (centres unmarked) [Example 14.29] | 680 nM
COc1ccc(C#Cc2ccc(CC(C)NC(C)=O)cc2)cc1 (centres unmarked) [Example 2.30] | 330 nM
CC(Cc1ccc(C#Cc2ccc(OCC3CC3)cc2)cc1)NC(=O)C1CC1 (centres unmarked) [Example 14.18] | 140 nM
CC(=O)NC(C)CCc1ccc(C#Cc2ccc(OC(C)C)cc2)cc1 (centres unmarked) [Example 14.9] | 180 nM
CC(=O)NC(C)Cc1ccc(C#Cc2cnc(OCc3ccccn3)nc2)cc1 (centres unmarked) [Example 12.57] | 1800 nM
CCOc1ccc(C#Cc2ccc(CC(C)NC(=O)C3CCCO3)cc2)cc1 (centres unmarked) [Example 4.37] | 900 nM
CC(=O)NC(C)Cc1ccc(C#Cc2ccnc(N3CCC4(CCCC4)C3)n2)cc1 (centres unmarked) [Example 11.28] | 380 nM
CCCOc1ccc(C#Cc2ccc(C(C)(C)CNC(C)=O)cc2)nc1 [Example 23.14] | 650 nM
CC(=O)NC(C)Cc1ccc(C#Cc2ccnc(N3CCCC(F)C3)n2)cc1 (centres unmarked) [Example 11.16] | 680 nM
CC(=O)NC(C)Cc1ccc(C#Cc2cccc(C(=O)N3CCOCC3)c2)cc1 (centres unmarked) [Example 1.32] | 16900 nM
CC(=O)NC(C)Cc1ccc(C#Cc2ccc(OCC(F)F)cc2)cc1 (centres unmarked) [Example 9.22] | 240 nM
CC(=O)NC(C)Cc1ccc(C#Cc2ccnc(N3CCC(C#N)C3)n2)cc1 (centres unmarked) [Example 11.29] | 4500 nM
CC(=O)NC(C)Cc1ccc(C#Cc2cccc(Oc3cncnc3)c2)cc1 (centres unmarked) [Example 10.3] | 1800 nM
COC(=O)NC(C)Cc1ccc(C#Cc2cnc(Oc3ccccc3)nc2)cc1 (centres unmarked) [Example 12.27] | 860 nM
CCCS(=O)(=O)NC(C)Cc1ccc(C#Cc2ccc(OCC)cc2)cc1 (centres unmarked) [Example 5.3] | 1200 nM
CCOc1ccc(C#Cc2ccc(C(C)NC(=O)C3CC3C)cc2)cc1 (centres unmarked) [Example 4.75] | 15400 nM
COc1ccc(C#Cc2ccc(C(C)NC(C)=O)cc2)c(C)c1 (centres unmarked) [Example 1.30] | 2100 nM
